The data set can be described thus: Inhibitors of Cruzain: PBS Stability Profiling Assay. To be noted: PBS pH 7 stability, 37 C, LC-MS/MS, 48 h; at 2 µM; active compounds read high. The text has this: Chagas Disease is a neglected tropical disease that affects over 16 million people in Latin America. The cysteine protease cruzain is essential for the survival Trypanosoma cruzi, the parasitic agent responsible for Chagas disease. Potential intervention for T. cruzi includes the inhibition of cruzain. This bioassay will summarize the ongoing development of small molecule cruzain inhbitiors. Currently, a screen of ~200k compounds and through extensive follow-up work a probe was identified. To further characterize the probe, it was tested in in vitro ADME assays. The stability of the lead compound in PBS buffer is tested because this parameter has a significant impact on many ADME-concerned properties of drugs, such as uptake, distribution, transport, and eventually bioavailability. NIH Chemical Genomics Center [NCGC] NIH Molecular Libraries Probe Production Centers Network [MLPCN] MLSCN Grant: DA024891-01 PI Name: Dr. Brian Shoichet; University of California, San Francisco
2uM of compound is incubated in PBS buffer at pH 7; the reference compound is procaine. Compounds are incubated at 37 deg C for the pre-determined time periods and the when aliquots are removed. Samples are analyzed with LC-MS/MS.

Take `Cc1ccc(OCCn2c(CCNC(=O)C3CCCCC3)nc3ccccc32)cc1`: the percent remaining is 100%.

Source of the values: PubChem BioAssay AID504752 (National Center for Advancing Translational Sciences (NCATS), 2011).
